Experimental data from patent US20120165331A1, “Di/tri-aza-spiro-C9-C11alkanes” (priority 2010, published 2012).

Experiments:
human orexin 1 receptor = target: T1, human orexin 1 receptor (Homo sapiens, UniProt O43613); experiment: Calcium accumulation in cells (FLIPR), antagonism of orexin A, human orexin 1 receptor; assay type: cell-based; details: for Ki: calcium accumulation, antagonism of orexin A, Cheng-Prusoff corrected, read-out: FLIPR hOx1R Ki; for inhibition at 10 µM: measured at a concentration of 10 μM of compound, read-out: FLIPR hOx1R % inhibition
T1 construct: expressed in transfected cells
T1 sequence (O43613 1-425): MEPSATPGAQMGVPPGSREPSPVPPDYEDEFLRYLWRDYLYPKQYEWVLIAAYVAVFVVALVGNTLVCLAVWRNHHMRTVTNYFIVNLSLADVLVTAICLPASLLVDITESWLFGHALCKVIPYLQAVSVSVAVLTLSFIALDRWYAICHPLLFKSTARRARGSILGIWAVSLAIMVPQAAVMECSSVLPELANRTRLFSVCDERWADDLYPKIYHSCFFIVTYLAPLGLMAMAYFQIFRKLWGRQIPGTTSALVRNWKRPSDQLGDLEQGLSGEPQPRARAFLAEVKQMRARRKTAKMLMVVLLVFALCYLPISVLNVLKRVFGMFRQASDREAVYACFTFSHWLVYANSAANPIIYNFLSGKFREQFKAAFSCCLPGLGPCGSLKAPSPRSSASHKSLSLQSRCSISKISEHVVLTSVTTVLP
Protocol: (§1) Calcium Accumulation in Cells (FLIPR):
(§2) Cells expressing human orexin 1 or human orexin 2 receptors, were seeded at 8,000 cells/well in 384 well black-walled clear bottom, poly-D-lysine coated plates. After 24 h, the medium was removed and cells were washed once with phosphate buffered saline and serum-deprived overnight in assay buffer (130 mM NaCl, 5.4 mM KCl, 1.8 mM CaCl2, 0.8 mM MgSO4, 0.9 mM NaH2PO4, 25 mM glucose, 20 mM HEPES, pH 7.4) containing bovine serum albumin (1% w/v).
(§3) On the day of the experiment, the cells seeded in black plates were treated with assay buffer containing the Ca^2+ sensitive fluorescent dye Fluo-4-AM (2 μM), and probenecid (0.1 mM). After 1 h plates were washed twice with, and resuspended in, assay buffer containing probenecid (0.1 mM) using a multi plate washer. The plates were placed into a FLIPR II (Fluorometric Imaging Plate Reader, Molecular Devices, Sunnyvale, Calif., USA) and baseline fluorescence (fluorescence light units, FLU) was measured (5 measurements, 2 S each; laser excitation 488 nm at 0.6-1 W, CCD camera exposure 0.4 s) before addition of buffer alone (basal) or containing test compounds (either compound of formula I alone, agonist alone or agonist in the presence of various concentrations of compounds of formula I). Fluorescence measurements were then continued every 1 S for 120 S followed by every 4 S for 240 S.
(§4) The measurements were typically made in two sequences:
(§5) Compounds of formula I were tested usually in a concentration range from 10^−9 M to 10^−5 M.
(§6) In the second round, performed one hour later (to allow for equilibration), Orexin A was tested either in the absence (calibration curves, Orexin A agonist controls) or in the presence of compounds of formula Ito determine antagonism.
(§7) Inhibition data is expressed in Table 1 as Kd [μM], converted by the Cheng and Prusoff correction (Kd=IC50/1+(L/EC50)), where IC50 is the 50% inhibition value determined in concentration response inhibition curves, EC50 is the half maximal activation concentration determined for orexin A in concentration response curves and L is the concentration of orexin A used in inhibition experiments performed in with a submaximal concentration of orexin A in the presence of up to 8 increasing concentrations of compound of formula I. Inhibition data is also expressed in Table 1 as % inhibition value measured at a concentration of 10 μM of selected compounds of formula I.

human orexin 2 receptor = target: T2, human orexin 2 receptor (Homo sapiens, UniProt O43614); experiment: Calcium accumulation in cells (FLIPR), antagonism of orexin A, human orexin 2 receptor; assay type: cell-based; details: calcium accumulation, antagonism of orexin A, Cheng-Prusoff corrected; read-out: FLIPR hOx2R Ki
T2 construct: expressed in transfected cells
T2 sequence (O43614 1-444): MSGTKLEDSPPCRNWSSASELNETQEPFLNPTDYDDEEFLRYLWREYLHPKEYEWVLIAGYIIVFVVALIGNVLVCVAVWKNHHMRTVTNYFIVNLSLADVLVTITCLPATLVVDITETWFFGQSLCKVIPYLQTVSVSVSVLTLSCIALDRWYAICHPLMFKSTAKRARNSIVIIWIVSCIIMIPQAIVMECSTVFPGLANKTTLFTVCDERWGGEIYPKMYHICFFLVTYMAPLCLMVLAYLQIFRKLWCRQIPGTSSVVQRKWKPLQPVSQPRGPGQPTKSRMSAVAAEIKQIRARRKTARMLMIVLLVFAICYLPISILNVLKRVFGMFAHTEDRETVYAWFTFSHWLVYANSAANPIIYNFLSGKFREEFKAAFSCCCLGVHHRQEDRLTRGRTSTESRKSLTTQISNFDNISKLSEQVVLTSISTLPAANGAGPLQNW
Protocol: as §1, §2, §3, §4, §5, §6, §7

Row | Structure (SMILES) | Ki (human orexin 1 receptor) [nM] | Ki (human orexin 2 receptor) [nM] | inhibition at 10 µM (human orexin 1 receptor) [%]
1 | Cc1cc(C)nc(N2CCC3(CC2)C(=O)N(Cc2c[nH]c4ccccc24)CCN3C)n1 [Example 1.2, 4-((1H-indol-3-yl)methyl)-9-(4,6-dimethylpyrimidin-2-yl)-1-methyl-1,4,9-triazaspiro[5.5]undecan-5-one] | 3650 | 449 | –
2 | Cc1cc(C)nc(N2CCC3(CC2)NCCN(Cc2nn(C)cc2-c2ccccc2)C3=O)n1 [Example 1.3, 9-(4,6-Dimethyl-pyrimidin-2-yl)-4-(1-methyl-4-phenyl-1H-pyrazol-3-ylmethyl)-1,4,9-triaza-spiro[5.5]undecan-5-on] | – | 334 | 35
3 | Cc1ccnc(N2CCC3(CC2)NCCN(Cc2c[nH]c4ccccc24)C3=O)n1 [Example 1.6, 4-((1H-Indol-3-yl)methyl)-9-(4-methylpyrimidin-2-yl)-1,4,9-triazaspiro[5.5] undecan-5-one] | – | 222 | 26
4 | COc1ccnc(N2CCC3(CC2)NCCN(Cc2c[nH]c4ccccc24)C3=O)n1 [Example 1.7, 4-((1H-Indol-3-yl)methyl)-9-(4-methoxypyrimidin-2-yl)-1,4,9-triazaspiro[5.5] undecan-5-one] | – | 101 | 35
5 | COc1cccc(-c2oc(C)nc2CN2CCNC3(CCN(c4nccc(C)n4)CC3)C2=O)c1 [Example 1.15, 4-((5-(3-Methoxyphenyl)-2-methyloxazol-4-yl)methyl)-9-(4-methylpyrimidin-2-yl)-1,4,9-triazaspiro[5.5] undecan-5-one] | – | 107 | 44
6 | Cc1cc(C)nc(N2CCC3(CC2)NCCN(Cc2nc(C)oc2-c2ccccc2)C3=O)n1 [Example 1.19, 9-(4,6-Dimethyl-pyrimidin-2-yl)-4-((2-methyl-5-phenyloxazol-4-yl)methyl)-1,4,9-triazaspiro[5.5] undecan-5-one] | 2650 | 250 | –
7 | Cc1ccnc(N2CCC3(CC2)NCCN(Cc2nc(C)oc2-c2ccccc2)C3=O)n1 [Example 1.20, 9-(4-Methyl-pyrimidin-2-yl)-4-((2-methyl-5-phenyloxazol-4-yl)methyl)-1,4,9-triazaspiro[5.5] undecan-5-one] | – | 1840 | 12
8 | Cc1cc(C#N)nc(N2CCC3(CC2)NCCN(Cc2nc(C)oc2-c2ccccc2)C3=O)n1 [Example 1.21, 6-Methyl-2-(4-((2-methyl-5-phenyloxazol-4-yl)methyl)-5-oxo-1,4,9-triazaspiro[5.5]undecan-9-yl) pyrimidine-4-carbonitrile] | – | 337 | 29
9 | COc1ccnc(N2CCC3(CC2)NCCN(Cc2nc(C)oc2-c2ccccc2)C3=O)n1 [Example 1.22, 9-(4-Methoxy-pyrimidin-2-yl)-4-((2-methyl-5-phenyloxazol-4-yl)methyl)-1,4,9-triazaspiro[5.5] undecan-5-one] | – | 1020 | 19
10 | COc1cc(C)nc(N2CCC3(CC2)NCCN(Cc2nc(C)oc2-c2ccccc2)C3=O)n1 [Example 1.23, 9-(4-Methoxy-6-methylpyrimidin-2-yl)-4-((2-methyl-5-phenyloxazol-4-yl)methyl)-1,4,9-triazaspiro[5.5] undecan-5-one] | 2110 | 192 | –
11 | COCc1cccc(-c2ocnc2CN2CCNC3(CCN(c4nc(C)cc(C#N)n4)CC3)C2=O)c1 [Example 1.28, 2-(4-((5-(3-(Methoxymethyl)phenyl)oxazol-4-yl)methyl)-5-oxo-1,4,9-triazaspiro[5.5]undecan-9-yl)-6-methylpyrimidine-4-carbonitrile] | – | 511 | 33
12 | O=C1N(Cc2ccccc2-c2ccccc2)CCC12CCN(c1nc3ccccc3s1)CC2 [Example 3.10, 8-(Benzo[d]thiazol-2-yl)-2-(biphenyl-2-ylmethyl)-2,8-diazaspiro[4.5]decan-1-one] | – | 1080 | –
